Values quoted from earlier work in patent US8585707B2, “Continuous low irradiance photodynamic therapy method” (priority 2006, dated 2013).

Settings: after intravenous administration, attributed to extended half-life

- time the level of drug in the tissue remains stable: over 36 hours
Substance: Photofrin
